The text below walks through data of patent publication US9790506B2, “Diagnostic and screening methods for atopic dermatitis” (The Regents of the University of California, priority 2013, dated 2017).

Ends that are not written are not given here. Bounds are passed on as bounds.

In one test the test system is NFAT. Briefly: NFAT translocation to the nucleus in keratinocytes (immunostaining). As to conditions: for SLIGRL-induced NFAT nuclear translocation in the presence of inhibitor: SLIGRL 100 μM + 2APB 50 μM or CsA 1 μM, 30 min. In kind it is cell-based, human. How it is done:
Histology Histology was carried out as previously described (Gerhold, 2013). Antibodies: rabbit anti-PGP9.5 and rabbit anti-peripherin (Millipore) 1:1000; goat anti-TSLPR and mouse anti-NFATcI (Santa Cruz Biotechnology) 1:100. IL7Rα and TSLPR probes (Panomics) were used for in situ hybridization following the Quantigene protocol (Panomics).
Following a rise in Ca^2+, NFAT is dephosphorylated by the Ca^2+-dependent phosphatase calcineurin and translocates from the cytosol to the nucleus to promote transcription of target genes (Rao et al., 1997).

The subject of test [1] is keratinocytes. The test can be described thus: ratiometric Ca^2+ imaging of keratinocytes. In kind it is cell-based, human. As to conditions: for SLIGRL-evoked Ca^2+ influx / intracellular Ca^2+ response of keratinocytes: SLIGRL 100 μM; for SLIGRL-evoked Ca^2+ influx / tryptase-evoked Ca^2+ influx: 2 mM Ca^2+, 50 μM 2-APB, 50 nM La^3+; for tryptase-evoked Ca^2+ influx / intracellular Ca^2+ response of keratinocytes: tryptase 100 nM; for intracellular Ca^2+ response of keratinocytes: BAM8-22 2 μM. As for the experimental part:
(§1) Physiological Ringer solution: 140 mM NaCl, 5 mM KCl, 10 mM HEPES, 2 mM CaCl2, 2 mM MgCl2, 10 mM D-(+)-glucose, pH 7.4 with NaOH. Images were collected and analyzed using MetaFluor (Molecular Devices).

The next test relates to DRG neurons. Briefly: ratiometric Ca^2+ imaging of DRG neurons. As to conditions: for Ca^2+ levels in TSLP-positive cells on subsequent exposure: AITC 200 μM, CAP 1 μM, all TSLP-positive cells; for overlap of the TSLP-sensitive population with the population sensitive to the compound: DRG neurons, FIG. 3D; for prevalence of TSLP-sensitive neurons / TSLP-evoked Ca^2+ signals after pre-treatment: neurons pre-treated with blocker versus vehicle. It is filed as cell-based, mouse. As for the experimental part: as §1

In a further test the test system is mice. Briefly: mouse cheek model of itch (scratching behavior after intradermal injection). In kind it is in vivo. How it is done: Mice and Behavior Mice (20-35 g) were housed in 12 h light-dark cycle at 21° C. […] For AITC behavior, 5 μL 10% AITC in mineral oil was applied to the right hind paw. Behavioral scoring was performed while blind to treatment and genotype. All experiments were performed under the policies and recommendations of the International Association for the Study of Pain and approved by the University of California, Berkeley Animal Care and Use Committee. […]

The subject of test [2] is keratinocytes. The test can be described thus: TSLP release from keratinocytes (ELISA). It is filed as cell-based, human. As to conditions: 24 h treatment, tryptase 100 nM, SLIGRL 100 μM; for TSLP secretion: TG 1 μM, versus vehicle; for TSLP secretion in the absence of external Ca^2+: 0 Ca. The source says: TSLP release was normalized to vehicle.
(In general: ELISA stands for enzyme-linked immunosorbent assay.)

For another test, the system named is TSLP transcripts. Briefly: expression of TSLP transcripts in keratinocytes. In kind it is cell-based, human. As to conditions: PAR2-evoked SOCE; 3 h treatment with SLIGRL 100 μM versus vehicle. How it is done: RT-PCR RNA was extracted using RNeasy (Qiagen) and reverse transcription was performed using Superscript III. RT-PCR was carried out using SYBR Green (Invitrogen) on a StepOnePlus ABI machine. Threshold cycles for each transcript (Bogiatzi et al.) were normalized to GAPDH (ACt). Calibrations and normalizations used the 2^−ΔΔCt method where ΔΔCt=[(Ct (target gene)−Ct (reference gene)]−[Ct (calibrator)−Ct (reference gene)]; GAPDH=reference gene; scrambled siRNA=calibrator. Experiments were performed in triplicate.

The test system of test [3] is keratinocytes. The test can be described thus: perforated-patch voltage-clamp recordings on keratinocytes. In kind it is cell-based, human. As to conditions: SLIGRL 100 μM. How it is done: Electrophysiology Recordings were collected at 5 kHz and filtered at 2 kHz using an Axopatch 200B and PClamp software. Electrode resistances were 2-6 MΩ. Perforated patch internal solution: 140 mM CsCl, 5 mM EGTA, 10 mM HEPES, pH 7.4 with CsOH, 0.24 mg ml^−1 Amphotericin B (Rae et al., 1991). Stimulation protocol: 10 ms step to −80 mV, 150 ms ramp from −80 mV to +80 mV. Current clamp internal solution: 140 mM KCl, 5 mM EGTA and 10 mM HEPES (pH 7.4 with KOH). Series resistance of all cells were <30 MΩ, and liquid junction potentials were <5 mV (no correction).

The next test relates to DRG neuron. The test can be described thus: current-clamp recording in DRG neuron. It is filed as cell-based, mouse. The note with it: subset of CAP-sensitive DRG neurons.
The next test has as its target T1, MrgprC11 (Mus musculus, UniProt Q8CIP3).
T1 sequence (Q8CIP3 1-322): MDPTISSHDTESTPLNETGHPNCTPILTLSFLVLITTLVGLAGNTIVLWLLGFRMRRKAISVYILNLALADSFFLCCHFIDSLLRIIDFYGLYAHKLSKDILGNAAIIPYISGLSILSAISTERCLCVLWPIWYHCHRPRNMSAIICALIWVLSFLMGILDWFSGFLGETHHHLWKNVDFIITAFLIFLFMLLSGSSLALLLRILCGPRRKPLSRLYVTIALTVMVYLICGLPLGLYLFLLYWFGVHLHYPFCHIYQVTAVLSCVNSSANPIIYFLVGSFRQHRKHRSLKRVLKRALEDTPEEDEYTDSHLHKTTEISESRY
Briefly: Ca^2+ response in the presence or absence of the mouse BAM8-22 receptor MrgprC11. The note with it: tryptase 3 μM. In kind it is cell-based. How it is done:
FIG. 15. […] MrgprX1 was amplified from DRG, but not keratinocytes. MrgprX1 and GAPDH were amplified from RT-treated tissue but not from “no RT” controls. (B) Representative response to BAM8-22 (BAM, 2 μM) in human keratinocytes. (C) Representative response to tryptase (TRY, 3 μM) and BAM8-22 (BAM, 2 μM) in the presence or absence of the mouse BAM8-22 receptor, MrgprC11. (D) Left: representative traces showing a neuron that is sensitive to BAM8-22 (BAM) but not tryptase (TRY, blue), and a neuron that is sensitive to tryptase but not BAM8-22 (black). Right: quantification of the prevalence of tryptase-responsive (TRY, black), BAM8-22-responsive (blue, BAM), and tryptase- and BAM8-22-responsive neurons in mouse dorsal root ganglia. n≧500 cells. Data are represented as mean+/−SEM

In the case of `NCCOB(c1ccccc1)c1ccccc1` [2-APB, 2-Aminoethoxydiphenyl borate], the “SLIGRL-induced NFAT nuclear translocation in the presence of inhibitor” value in the test on NFAT is “attenuated”. In the test on NFAT (listed as 2APB), the “SLIGRL-induced NFAT nuclear translocation in the presence of inhibitor” value is “prevented”. Further, in the test on keratinocytes [1], the “SLIGRL-evoked Ca^2+ influx” value is listed as “significantly attenuated” and the “tryptase-evoked Ca^2+ influx” value is reported as “significantly attenuated”.

For the compound `C=CCN=C=S` [AITC, allyl isothiocyanate], the “Ca^2+ levels in TSLP-positive cells on subsequent exposure” value in the test with DRG neurons was “further increased”.

In the case of `COc1cc(CNC(=O)CCCC/C=C/C(C)C)ccc1O` [CAP, capsaicin], the “Ca^2+ levels in TSLP-positive cells on subsequent exposure” value in the test with DRG neurons is on record as “further increased”.

As to `CCN(CC)CCCC(C)Nc1ccnc2cc(Cl)ccc12` (stereo not shown) [CQ, chloroquine], the “overlap of the TSLP-sensitive population with the population sensitive to the compound” value (“overlap of the TSLP-sensitive population” for short) in the test on DRG neurons is given as 6%.

In the case of `[La+3]` [La^3+, lanthanum], in the test with keratinocytes [1], the “SLIGRL-evoked Ca^2+ influx” value is reported as “significantly attenuated” and the “tryptase-evoked Ca^2+ influx” value was “significantly attenuated”.

Turning to `C=C(C)[C@]12C[C@@H](C)[C@@]34O[C@](Cc5ccccc5)(O[C@@H]1[C@@H]3C=C(COC(=O)Cc1ccc(O)c(OC)c1)C[C@]1(O)C(=O)C(C)=C[C@@H]41)O2` [RTX, resiniferatoxin], the “TSLP-evoked scratching after neuronal ablation” value in the test with mice (RTX-treated mice compared to control mice, RTX two days prior to pruritogen) was “significantly decreased”.

As for `C/C=C(/C)C(=O)O[C@H]1C(C)=C2[C@H]([C@@H]1OC(=O)CCCCCCC)[C@@](C)(OC(C)=O)C[C@H](OC(=O)CCC)[C@@]1(O)[C@H]2OC(=O)[C@@]1(C)O` [TG, thapsigargin], the TSLP secretion entry in the test with keratinocytes [2] was “significant increase”.

With `COc1ccc2c(c1)CC[C@@H]1[C@@H]2CC[C@]2(C)[C@@H](NCCCCCCN3C(=O)C=CC3=O)CC[C@@H]12` [U73122, 1-[6-[[(17β)-3-Methoxyestra-1,3,5(10)-trien-17-yl]amino]hexyl]-1H-pyrrole-2,5-dione], the “TSLP-evoked scratching after intradermal injection of PLC blocker” value in the test with mice (30 min preinjection, versus vehicle, scratching quantified for 20 min) is “significantly attenuated”. In addition, the “CQ-evoked scratching after intradermal injection of PLC blocker” value in the test on mice (preinjection, versus vehicle) was “normal”. Moreover, the “prevalence of TSLP-sensitive neurons / TSLP-evoked Ca^2+ signals after pre-treatment” value in the test with DRG neurons is reported as “significantly reduced”.

Consider `O=C1OC2(c3ccccc31)c1ccc(O)c(O)c1Oc1c2ccc(O)c1O` [gallein], for which the “prevalence of TSLP-sensitive neurons / TSLP-evoked Ca^2+ signals after pre-treatment” value in the test on DRG neurons is given as “no effect”.

On to `NCCc1c[nH]cn1` [histamine], for which the “overlap of the TSLP-sensitive population” value in the test with DRG neurons came to 6%.

`N.N.N.N.N.N.N.N.N.N.N.N.N.N.[Cl-].[Cl-].[Cl-].[Cl-].[Cl-].[Cl-].[O-2].[O-2].[Ru+3].[Ru+3].[Ru+4]` [ruthenium red]: the “neuronal sensitivity to TSLP after TRPV1 and TRPA1 inhibition” value in the test on DRG neurons (20 μM ruthenium red) was “significantly decreased”.

In the case of “SLIGRL [widely used PAR2 ligand mimetic]”, in the test on keratinocytes [2], the TSLP secretion entry is on record as “robust secretion” and the “TSLP secretion in the absence of external Ca^2+” value is given as “not observed”. For the same compound, in the test on NFAT (SLIGRL 100 μM for 30 minutes), the “NFAT translocation to the nucleus” value was “induced robust NFAT translocation”. Also, the “expression of TSLP transcripts” value in the test on TSLP transcripts is recorded as “robustly increased”. In addition, the “reversal potential of SLIGRL-evoked currents” value in the test with keratinocytes [3] was “no measurable reversal potentials below +80 mV”. The SLIGRL-evoked currents entry in the test with keratinocytes [3] (dependent on extracellular Ca^2+, inwardly-rectifying) was “triggered an ORAI1/2-like current”. In addition, the “intracellular Ca^2+ response of keratinocytes” value (“intracellular Ca^2+ response” for short) with keratinocytes [1] is reported as “evoked a rise in intracellular Ca^2+”.

For “TSLP: AD cytokine released from keratinocytes; injected as pruritogen, acts on TSLPR-positive sensory neurons”, in the test on mice (RAG1−/−, NOD SCID, Kit(W-sh) mice, no significant differences to wild type littermates), the “TSLP-evoked itch behaviors in strains lacking T and B cells or mast cells” value is on record as “robust itch behaviors”. In the test on mice (TSLP injection), the “time after injection at which robust itch behaviors were observed” value was at most 5 min. For the same compound, the “wiping (pain behavior)” value in the test with mice (TSLP injection into the cheek of wild type mice) is listed as “never observed”. For the same compound, the latency to scratch in the test on mice (TSLP injection into the cheek of wild type mice (2.5 μg/20 μl)) came to 4.1 ± 0.3 min. Besides, the itch-evoked scratching result in the test on mice (TSLP injection into the cheek of wild type mice, versus vehicle) is “evoked robust scratching”. Further, in the test on mice (cheek injection 2.5 μg/10 μL), the “TSLP-evoked scratching in TRPA1-deficient mice” value is “abolished” and the “TSLP-evoked scratching in TRPV1-deficient mice” value is recorded as “normal”. Besides, the “TSLP-evoked scratching in IL7Rα-deficient mice” value in the test on mice (cheek injection, versus wild type) was “significantly attenuated”. Also, the action potential firing result in the test with DRG neuron is “triggered action potential firing”. For the same compound, the “DRG neurons showing robust increases in intracellular Ca^2+” value in the test on DRG neurons (TSLP application (2 ng/mL), wild-type neurons) turned out to be 4.1±0.6%. For the same compound, the “source of TSLP-evoked Ca^2+ signal in sensory neurons” value in the test on DRG neurons (absence (0 mM) and presence (2 mM) of extracellular Ca^2+) was “triggers both release of Ca^2+ from intracellular stores, and subsequent Ca^2+ influx”. Moreover, in the test on DRG neurons (neurons isolated from IL7Rα-deficient mice), the “evoked Ca^2+ signaling abolished in IL7Rα-deficient neurons” value is recorded as “abolished”. For the same compound, the “TSLP-evoked Ca^2+ signals in TRPA1-deficient neurons” value in the test with DRG neurons (versus wild type littermates) is reported as “significantly attenuated”.

As to “VGRPEWWMDYQKRYG [BAM8-22, MrgprX1-specific ligand, endogenous pruritogen]”, in the test with keratinocytes [1], the “intracellular Ca^2+ response” value is “insensitive”. For the same compound, the “overlap of the TSLP-sensitive population” value with DRG neurons is 0%.

Turning to tryptase: endogenous PAR2 agonist, in the test on keratinocytes [2], the TSLP secretion result was “robust secretion” and the “TSLP secretion in the absence of external Ca^2+” value is “not observed”. In the test with mice (cheek 100 μg/20 μL), the “tryptase-evoked itch in IL7Rα-deficient mice” value was “significantly attenuated” and the “tryptase-evoked itch in PAR2-deficient mice” value is given as “significantly attenuated”. In addition, in the test with mice (wild type mice, cheek 100 μg/20 μL, scratching quantified for 1 h), the tryptase-evoked itch behaviors result was “induced robust itch behaviors”. In the test with keratinocytes [1], the “intracellular Ca^2+ response” value was “evoked a rise in intracellular Ca^2+”. The “activation of MrgprC11” value with MrgprC11 is recorded as “does not activate”.
